Assays:
Assay type in all cases: functional
[1] = system: Pyricularia oryzae; experiment: Fungicidal activity against Magnaporthe oryzae Cav. race 003 assessed as rice blast disease control at 125 ppm treated 24 hr before inoculation by preventive manner
[2] = system: Botrytis cinerea; experiment: Fungicidal activity against Botryotinia fuckeliana assessed as cucumber gray mold disease control at 125 ppm treated 24 hr before inoculation by preventive manner
[3] = system: Podosphaera fuliginea; experiment: Fungicidal activity against Podosphaera fuliginea assessed as cucumber powdery mildew disease control at 7.8 ppm treated 24 hr before inoculation by preventive manner
[4] = system: Pseudoperonospora cubensis; experiment: Fungicidal activity against Pseudoperonospora cubensis assessed as cucumber downy mildew disease control at 31.3 ppm foliar application 24 hr before inoculation onto the abaxial(treated) surface of leaf by preventive manner
[5] = system: Thanatephorus cucumeris; experiment: Fungicidal activity against Thanatephorus cucumeris assessed as rice sheath blight disease control at 31.3 ppm foliar application for 24 hr after inoculation by curative manner
[6] = system: Botrytis cinerea; experiment: Fungicidal activity against Botryotinia fuckeliana assessed as cucumber gray mold disease control at 7.8 ppm foliar application 24 hr before inoculation by preventive manner
[7] = system: Pseudoperonospora cubensis; experiment: Fungicidal activity against Pseudoperonospora cubensis assessed as cucumber downy mildew disease control at 125 ppm foliar application 24 hr before inoculation onto the adaxial(treated) surface of leaf by preventive manner
[8] = system: Pseudoperonospora cubensis; experiment: Fungicidal activity against Pseudoperonospora cubensis assessed as cucumber downy mildew disease control at 7.8 ppm foliar application 24 hr before inoculation onto the adaxial(treated) surface of leaf by preventive manner
[9] = system: Blumeria graminis; experiment: Fungicidal activity against Blumeria graminis f. sp. tritici assessed as wheat powdery mildew disease control at 7.8 ppm foliar application for 24 hr after inoculation by curative manner
[10] = system: Pseudoperonospora cubensis; experiment: Fungicidal activity against Pseudoperonospora cubensis assessed as cucumber downy mildew disease control at 31.3 ppm foliar application 24 hr after inoculation by curative manner
[11] = system: Botrytis cinerea; experiment: Fungicidal activity against Botryotinia fuckeliana assessed as cucumber gray mold disease control at 2 ppm foliar application 24 hr after inoculation by curative manner
[12] = system: Thanatephorus cucumeris; experiment: Fungicidal activity against Thanatephorus cucumeris assessed as rice sheath blight disease control at 125 ppm foliar application for 24 hr after inoculation by curative manner
[13] = system: Podosphaera fuliginea; experiment: Fungicidal activity against Podosphaera fuliginea assessed as cucumber powdery mildew control at 0.125 ppm foliar application 24 hr before inoculation by preventive manner
[14] = system: Thanatephorus cucumeris; experiment: Fungicidal activity against Thanatephorus cucumeris assessed as rice sheath blight disease control at 2 ppm foliar application for 24 hr before inoculation by preventive manner
[15] = system: Botrytis cinerea; experiment: Fungicidal activity against Botryotinia fuckeliana assessed as cucumber gray mold disease control at 125 ppm foliar application 24 hr before inoculation by preventive manner
[16] = system: Podosphaera fuliginea; experiment: Fungicidal activity against Podosphaera fuliginea assessed as cucumber powdery mildew control at 0.5 ppm foliar application 24 hr after inoculation by curative manner
[17] = system: Thanatephorus cucumeris; experiment: Fungicidal activity against Thanatephorus cucumeris assessed as rice sheath blight disease control at 125 ppm foliar application for 24 hr before inoculation by preventive manner
[18] = system: Pseudoperonospora cubensis; experiment: Fungicidal activity against Pseudoperonospora cubensis assessed as cucumber downy mildew disease control at 7.8 ppm foliar application 24 hr before inoculation onto the abaxial(treated) surface of leaf by preventive manner
[19] = system: Pseudoperonospora cubensis; experiment: Fungicidal activity against Pseudoperonospora cubensis assessed as cucumber downy mildew disease control at 125 ppm foliar application 24 hr before inoculation onto the abaxial(treated) surface of leaf by preventive manner
[20] = system: Podosphaera fuliginea; experiment: Fungicidal activity against Podosphaera fuliginea assessed as cucumber powdery mildew control at 0.125 ppm foliar application 24 hr after inoculation by curative manner
[21] = system: Podosphaera fuliginea; experiment: Fungicidal activity against Podosphaera fuliginea assessed as cucumber powdery mildew control at 7.8 ppm foliar application 24 hr after inoculation by curative manner
[22] = system: Podosphaera fuliginea; experiment: Fungicidal activity against Podosphaera fuliginea assessed as cucumber powdery mildew control at 2 ppm foliar application 24 hr after inoculation by curative manner
[23] = system: Blumeria graminis; experiment: Fungicidal activity against Blumeria graminis f. sp. tritici assessed as wheat powdery mildew disease control at 7.8 ppm foliar application for 24 hr before inoculation by preventive manner
[24] = system: Thanatephorus cucumeris; experiment: Fungicidal activity against Thanatephorus cucumeris assessed as rice sheath blight disease control at 2 ppm foliar application for 24 hr after inoculation by curative manner
[25] = system: Blumeria graminis; experiment: Fungicidal activity against Blumeria graminis f. sp. tritici assessed as wheat powdery mildew disease control at 125 ppm foliar application for 24 hr before inoculation by preventive manner
[26] = system: Blumeria graminis; experiment: Fungicidal activity against Blumeria graminis f. sp. tritici assessed as wheat powdery mildew disease control at 125 ppm foliar application for 24 hr after inoculation by curative manner
[27] = system: Blumeria graminis; experiment: Fungicidal activity against Blumeria graminis f. sp. tritici assessed as wheat powdery mildew disease control at 31.3 ppm foliar application for 24 hr before inoculation by preventive manner
[28] = system: Botrytis cinerea; experiment: Fungicidal activity against Botryotinia fuckeliana assessed as cucumber gray mold disease control at 7.8 ppm treated 24 hr before inoculation by preventive manner
[29] = system: Blumeria graminis; experiment: Fungicidal activity against Blumeria graminis f. sp. tritici assessed as wheat powdery mildew disease control at 2 ppm foliar application for 24 hr before inoculation by preventive manner
[30] = system: Pyricularia oryzae; experiment: Fungicidal activity against Magnaporthe oryzae Cav. race 003 assessed as rice blast disease control at 31.3 ppm treated 24 hr before inoculation by preventive manner
[31] = system: Blumeria graminis; experiment: Fungicidal activity against Blumeria graminis f. sp. tritici assessed as wheat powdery mildew disease control at 2 ppm foliar application for 24 hr after inoculation by curative manner
[32] = system: Thanatephorus cucumeris; experiment: Fungicidal activity against Thanatephorus cucumeris assessed as rice sheath blight disease control at 7.8 ppm foliar application for 24 hr after inoculation by curative manner
[33] = system: Podosphaera fuliginea; experiment: Fungicidal activity against Podosphaera fuliginea assessed as cucumber powdery mildew control at 0.5 ppm foliar application 24 hr before inoculation by preventive manner
[34] = system: Pyricularia oryzae; experiment: Fungicidal activity against Magnaporthe oryzae Cav. race 003 assessed as rice blast disease control at 7.8 ppm foliar application for 24 hr before inoculation by preventive manner
[35] = system: Pseudoperonospora cubensis; experiment: Fungicidal activity against Pseudoperonospora cubensis assessed as cucumber downy mildew disease control at 7.8 ppm foliar application 24 hr after inoculation by curative manner
[36] = system: Pseudoperonospora cubensis; experiment: Fungicidal activity against Pseudoperonospora cubensis assessed as cucumber downy mildew disease control at 2 ppm foliar application 24 hr before inoculation onto the adaxial(treated) surface of leaf by preventive manner
[37] = system: Thanatephorus cucumeris; experiment: Fungicidal activity against Thanatephorus cucumeris assessed as rice sheath blight disease control at 7.8 ppm foliar application for 24 hr before inoculation by preventive manner
[38] = system: Pyricularia oryzae; experiment: Fungicidal activity against Magnaporthe oryzae Cav. race 003 assessed as rice blast disease control at 125 ppm foliar application for 24 hr before inoculation by preventive manner
[39] = system: Podosphaera fuliginea; experiment: Fungicidal activity against Podosphaera fuliginea assessed as cucumber powdery mildew control at 2 ppm foliar application 24 hr before inoculation by preventive manner
[40] = system: Thanatephorus cucumeris; experiment: Fungicidal activity against Thanatephorus cucumeris assessed as rice sheath blight disease control at 31.3 ppm foliar application for 24 hr before inoculation by preventive manner
[41] = system: Pyricularia oryzae; experiment: Fungicidal activity against Magnaporthe oryzae Cav. race 003 assessed as rice blast disease control at 31.3 ppm foliar application for 24 hr before inoculation by preventive manner
[42] = system: Botrytis cinerea; experiment: Fungicidal activity against Botryotinia fuckeliana assessed as cucumber gray mold disease control at 7.8 ppm foliar application 24 hr after inoculation by curative manner
[43] = system: Botrytis cinerea; experiment: Fungicidal activity against Botryotinia fuckeliana assessed as cucumber gray mold disease control at 31.3 ppm foliar application 24 hr before inoculation by preventive manner
[44] = system: Podosphaera fuliginea; experiment: Fungicidal activity against Podosphaera fuliginea assessed as cucumber powdery mildew control at 7.8 ppm foliar application 24 hr before inoculation by preventive manner
[45] = system: Pseudoperonospora cubensis; experiment: Fungicidal activity against Pseudoperonospora cubensis assessed as cucumber downy mildew disease control at 125 ppm foliar application 24 hr after inoculation by curative manner
[46] = system: Pseudoperonospora cubensis; experiment: Fungicidal activity against Pseudoperonospora cubensis assessed as cucumber downy mildew disease control at 2 ppm foliar application 24 hr after inoculation by curative manner
[47] = system: Botrytis cinerea; experiment: Fungicidal activity against Botryotinia fuckeliana assessed as cucumber gray mold disease control at 2 ppm foliar application 24 hr before inoculation by preventive manner
[48] = system: Botrytis cinerea; experiment: Fungicidal activity against Botryotinia fuckeliana assessed as cucumber gray mold disease control at 31.3 ppm foliar application 24 hr after inoculation by curative manner
[49] = system: Pyricularia oryzae; experiment: Fungicidal activity against Magnaporthe oryzae Cav. race 003 assessed as rice blast disease control at 2 ppm foliar application for 24 hr before inoculation by preventive manner
[50] = system: Blumeria graminis; experiment: Fungicidal activity against Blumeria graminis f. sp. tritici assessed as wheat powdery mildew disease control at 31.3 ppm foliar application for 24 hr after inoculation by curative manner
[51] = system: Pseudoperonospora cubensis; experiment: Fungicidal activity against Pseudoperonospora cubensis assessed as cucumber downy mildew disease control at 31.3 ppm foliar application 24 hr before inoculation onto the adaxial(treated) surface of leaf by preventive manner
[52] = system: Pseudoperonospora cubensis; experiment: Fungicidal activity against Pseudoperonospora cubensis assessed as cucumber downy mildew disease control at 2 ppm foliar application 24 hr before inoculation onto the abaxial(treated) surface of leaf by preventive manner
[53] = system: Botrytis cinerea; experiment: Fungicidal activity against Botryotinia fuckeliana assessed as cucumber gray mold disease control at 125 ppm foliar application 24 hr after inoculation by curative manner
[54] = system: Botrytis cinerea; experiment: Fungicidal activity against Botryotinia fuckeliana assessed as cucumber gray mold disease control at 31.3 ppm treated 24 hr before inoculation by preventive manner
[55] = system: Podosphaera fuliginea; experiment: Fungicidal activity against Podosphaera fuliginea assessed as cucumber powdery mildew disease control at 500 ppm treated 24 hr before inoculation by preventive manner
[56] = system: Pyricularia oryzae; experiment: Fungicidal activity against Magnaporthe oryzae Cav. race 003 assessed as rice blast disease control at 500 ppm treated 24 hr before inoculation by preventive manner
[57] = system: Podosphaera fuliginea; experiment: Fungicidal activity against Podosphaera fuliginea assessed as cucumber powdery mildew disease control at 31.3 ppm treated 24 hr before inoculation by preventive manner
[58] = system: Pseudoperonospora cubensis; experiment: Fungicidal activity against Pseudoperonospora cubensis assessed as cucumber downy mildew disease control at 0.5 ppm foliar application 24 hr after inoculation by curative manner
[59] = system: Pseudoperonospora cubensis; experiment: Fungicidal activity against Pseudoperonospora cubensis assessed as cucumber downy mildew disease control at 0.5 ppm foliar application 24 hr before inoculation onto the abaxial(treated) surface of leaf by preventive manner
[60] = system: Pseudoperonospora cubensis; experiment: Fungicidal activity against Pseudoperonospora cubensis assessed as cucumber downy mildew disease control at 0.5 ppm foliar application 24 hr before inoculation onto the adaxial(treated) surface of leaf by preventive manner
[61] = system: Blumeria graminis; experiment: Fungicidal activity against Blumeria graminis f. sp. tritici assessed as wheat powdery mildew disease control at 0.5 ppm foliar application for 24 hr before inoculation by preventive manner
[62] = system: Blumeria graminis; experiment: Fungicidal activity against Blumeria graminis f. sp. tritici assessed as wheat powdery mildew disease control at 0.5 ppm foliar application for 24 hr after inoculation by curative manner

CNC(=O)C(OC)c1cccc(COc2ccccc2Br)c1 (configuration not stated)
Activity [1]: 90%
Activity [2]: 50%
Activity [3]: 90%

CNC(=O)C(OC)c1cccc(COc2cc(C)ccc2C)c1 (configuration not stated)
Activity [4]: 70%
Activity [5]: 40%
Activity [6]: 50%
Activity [7]: 97%
Activity [8]: 97%
Activity [9]: 90%
Activity [10]: 30%
Activity [11]: 20%
Activity [12]: 70%
Activity [13]: 30%
Activity [14]: 10%
Activity [15]: 80%
Activity [16]: 70%
Activity [17]: 80%
Activity [18]: 70%
Activity [19]: 70%
Activity [20]: 30%
Activity [21]: 100%
Activity [22]: 100%
Activity [23]: 90%
Activity [24]: 20%
Activity [25]: 97%
Activity [26]: 97%
Activity [27]: 97%
Activity [28]: 50%
Activity [29]: 90%
Activity [30]: 90%
Activity [31]: 90%
Activity [32]: 30%
Activity [33]: 70%
Activity [34]: 70%
Activity [35]: 0%
Activity [36]: 97%
Activity [37]: 20%
Activity [38]: 95%
Activity [39]: 90%
Activity [3]: 90%
Activity [40]: 40%
Activity [41]: 90%
Activity [42]: 50%
Activity [43]: 80%
Activity [44]: 99%
Activity [45]: 30%
Activity [46]: 0%
Activity [47]: 50%
Activity [48]: 60%
Activity [49]: 30%
Activity [50]: 97%
Activity [51]: 97%
Activity [52]: 50%
Activity [53]: 80%

CNC(=O)C(OC)c1cccc(COc2cc(C)cc(C)c2)c1 (configuration not stated)
Activity [54]: 50%
Activity [1]: 90%
Activity [55]: <90%

CCNC(=O)C(OC)c1cccc(COc2cc(C)ccc2C)c1 (configuration not stated)
Activity [56]: <90%
Activity [57]: 90%
Activity [2]: 50%

COC(=O)C(C)N(C(=O)Cc1ccccc1)c1c(C)cccc1C (configuration not stated) [BENALAXYL]
Activity [4]: 70%
Activity [7]: 97%
Activity [8]: 20%
Activity [10]: 80%
Activity [18]: 40%
Activity [19]: 97%
Activity [58]: 0%
Activity [35]: 40%
Activity [36]: 20%
Activity [59]: 0%
Activity [45]: 80%
Activity [46]: 10%
Activity [60]: 0%
Activity [51]: 70%
Activity [52]: 20%

CC(C)(C)C(=O)C(Oc1ccc(Cl)cc1)n1cncn1 (configuration not stated) [TRIADIMEFON]
Activity [61]: 30%
Activity [62]: 50%
Activity [9]: 90%
Activity [23]: 97%
Activity [27]: 97%
Activity [29]: 50%
Activity [31]: 90%
